Data as given in patent US20230098772A1, “ADVANCED MICROBIOME THERAPEUTICS ENGINEERED TO PRODUCE SEROTONIN IN VIVO” (DANMARKS TEKNISKE UNIVERSITET, priority 2019, published 2023).

B1: mutant GCH1: mutant GTP cyclohydrolase I with T198I substitution encoded by mutated folE gene (protein, UniProt P0A6T5 2-222, looked up, variant T198I)
GTP cyclohydrolase 1: PSLSKEAALVHEALVARGLETPLRPPVHEMDNETRKSLIAGHMTEIMQLLNLDLADDSLMETPHRIAKMYVDEIFSGLDYANFPKITLIENKMKVDEMVTVRDITLTSTCEHHFVTIDGKATVAYIPKDSVIGLSKINRIVQFFAQRPQVQERLTQQILIALQTLLGTNNVAVSIDAVHYCVKARGIRDATSATTTISLGGLFKSSQNTRHEFLRAVRHHN

Key:
mice [1] = assay: Open Field Test after 21 days treatment, comparison with fluoxetine; assay type: in vivo, mice (C57BL/6); conditions: oN14 10^9 cells oral gavage, fluoxetine 10 mg/kg I.P.
Experimental: 9.1.3 Open Field Test: Each mouse was placed in a white, open-roof, well lite, 50 cm (length)×50 cm (width)×38 cm (height) chamber and recorded for 10 minutes following previously described methods (Spohn, S. N. et al., 2016). Mice were then placed back into their original cage. Fecal pellets produced during the 10-minute test were counted. Recordings were then post processed and analyzed using BehaviorCloud as previously described (Spohn, S. N. et al., 2016). Mouse tracking software recorded total path of movement of each mouse, total distance traveled, time spent in the inner zone defined as the […] and outer zone defined as the outer 10 cm border closest to the walls, number of times entering the inner zone, and distance traveled within the inner zone.
(§1) 10.1.1 Administration: as described for oral administration in 6.1.1, but with the following modifications: The mice were administered sterile PBS only (PBS) or freshly-grown 10^9 cells of E. coli Nissle strain designated oN14 (E. coli Nissle strain oN comprising pMUT14-ser) in sterile PBS (oN14) by oral gavage. Additionally, the mice were administered a 200 μl intraperitoneal (I.P.) injection of saline or the SSRI, fluoxetine at 10 mg/kg body weight in saline. The mice received the oral and IP administered co-treatments every 24 hrs at the same time of day for 21 days. Accordingly, the four mice treatment groups received: IP: saline/Gavage: PBS (negative control); IP: Fluoxetine/Gavage: PBS (SSRI positive comparator), IP: saline/Gavage: oN14 (oN14 positive comparator); and IP: Fluoxetine/Gavage: oN14 (positive combination comparator). 24 hours after the last administration, the mice were subjected to motility and behavioral testing.

mice [2] = assay: Forced Swim Test after 21 days treatment, comparison with fluoxetine; assay type: in vivo, mice (C57BL/6); conditions: oN14 10^9 cells oral gavage, fluoxetine 10 mg/kg I.P.
Experimental: 9.1.2 Forced Swim Test: Each mouse was placed in clear cylindrical tanks (30 cm height×20 cm) with 15 cm of water at 23-25° C. for 6 minutes and recorded, as described by Ferguson (2001). Mice were then towel dried and placed under a heat lamp to dry to prevent hypothermia and then placed back in their original cage. Recordings were de-identified and a blinded observer, scored recordings for the time spent immobile during the last 4 minutes of the 6-minute test, as described by Can et al., (2012).
as §1, with “24 hours after the last administration, the mice were subjected to motility and behavioral testing.” left out

[3] = tested on: 5-HT biosynthetic pathway; assay: In vitro metabolite production by E. coli Nissle strains (LC-MS of culture media); assay type: cell-based; conditions: strains comprising pMUT10-5htp; vs folE WT; FIG. 5F
Experimental: Strains were grown in a modified M9 medium, containing 1× M9 salts (M6030, Sigma Aldrich), 0.2% (w/v) glucose, 0.1% (w/v) casamino acids (Cat. No. C2000, Teknova), 1 mM MgSO4, 50 μM FeCl3, 0.2% (v/v) 2YT medium (composition see below), and 50 mg/L of L-tryptophan unless stated otherwise. Kanamycin was added at a final concentration of 50 mg/L unless stated otherwise. Three single colonies were picked from each strain, grown in 300 μl medium in 96 deep-well plates and shaken at 250 rpm at 37° C. for 16 hours. The main culture was inoculated by diluting this pre-culture 1:100 into fresh medium, and cells were grown for 24 h under the same conditions. In the case of substrate feeding, TRP and 5-HTP was added to the growth medium in an amount of 100 mg TRP or 5-HTP/L. Afterwards, the culture supernatant was separated from cells using a 0.2 μm pore size filter, and frozen at −20° C. until analysis by LC-MS. […]
Detection of serotonin, tryptamine, tryptophan and 5-HTP were conducted by liquid chromatography mass spectrometry (LC-MS) measurements on a Dionex UltiMate 3000 UHPLC (Fisher Scientific, San Jose, Calif.) connected to an Orbitrap Fusion Mass Spectrometer (Thermo Fisher Scientific, San Jose, Calif.). […] Quantification of the compounds was based on calculations from calibration standards analyzed before and after sets of 24 samples. […]

Row | Molecule | distance travelled in the inner zone in OFT (mice [1]) | fecal boli produced during the OFT (mice [1]) | time spent in the inner zone in OFT (mice [1]) | total number of entries in the inner zone in OFT (mice [1]) | time of immobility in Forced Swim Test (mice [2]) | increase of hydroxylation of tryptophan to 5-hydroxytryptophan catalyzed by human tryptophan 5-hydroxylase [3]
1 | CNCCC(Oc1ccc(C(F)(F)F)cc1)c1ccccc1 (stereo not drawn) [Fluoxetine] | increased | reduction | increased | increased | significantly reduce | 
2 | B1 |  |  |  |  |  | 4 fold
